Read-outs that look alike come from different tables or passages of the source.

Data set [1] has as its system CYP2C8 and CYP3A4. The data set is described as follows: PTX metabolism in human liver microsomes: PTX level. The conditions noted are these: HLM; in the presence of NADPH, no inhibitor. In kind it is in vitro ADME. As to the method:
Figure 7 Mechanistic study of FM04 to increase the oral PTX absorption. (A) transepithelial permeability of PTX in Caco-2 transwell assay. When confluent monolayer of Caco2 cells was formed on the transwell, the permeability of PTX (10 μM) was studied with or without FM04 (10 μM). For apical to basolateral transport (A to B), compound was added at the apical side (donor) and samples of the medium collected at the basal side (receiver) at 0, 20, 40, 60, 80, 100 and 120 min and vice versa for basal to apical transport (B to A). The PTX level was determined using UPLC-MS/MS. The relative % of PTX was presented as mean ± standard error of mean. N = 2–3 independent experiments. Impact of FM04 on PTX metabolism. […] After incubation, the levels of PTX, metabolites 6α-hydroxpaclitaxel (6α-OHP) and p3′-hydroxpaclitaxel (p3-OHP) were determined by HPLC-MS/MS. (B) changes in PTX. (C) changes in 6α-OHP. (D) changes in p3-OHP. […]
Drug solutions of PTX and FM04 were prepared in methanol. […] PTX and PTX metabolites were immediately analyzed by UPLC-MS/MS on the same day.
[^13C6]-paclitaxel (CAS: 379688-61-6) was the internal standard (IS) and purchased from Alsachim. Fifteen microliters of 10 μg/mL internal standard (IS) was added to all samples and calibration standards for quantification. […] PTX and both metabolites were semi-quantified base on the peak area ratio of the analyte/internal standard.
(Microsomes from liver hold many membrane-bound enzymes, among them those of drug oxidation.)

Details of data set [2]: method as in PMID 23090875. The conditions noted are these: oral PTX 10 mg/kg, cited from earlier work.

Consider `CC(=O)O[C@H]1C(=O)[C@@]2(C)[C@H]([C@H](OC(=O)c3ccccc3)[C@]3(O)C[C@H](OC(=O)[C@H](O)[C@@H](NC(=O)c4ccccc4)c4ccccc4)C(C)=C1C3(C)C)[C@]1(OC(C)=O)CO[C@@H]1C[C@@H]2O` [PTX, paclitaxel], for which the “reduction of PTX level” value in data set [1] is given as 50%. Moreover, the “fold increase of oral plasma AUC of PTX relative to wild type mice” value in data set [2] (Cyp3a KO (Cyp3a−/−) mice) is on record as 1.5 fold; in data set [2] (P-gp KO (Mdr1a/b−/−) mice), 12.4 fold; in data set [2] (combined P-gp and Cyp3a KO mice), 27.6 fold.

These data come from paper PMC9739180, “Discovery of a Flavonoid FM04 as a Potent Inhibitor to Reverse P-Glycoprotein-Mediated Drug Resistance in Xenografts and Improve Oral Bioavailability of Paclitaxel” (International Journal of Molecular Sciences, 2022).
